Our source for the IC50 values is US20240335443A1, “IMIDAZOLOPYRIDAZINE OR PYRAZOLOPYRIMIDINE COMPOUNDS AND COMPOSITIONS” (Anrui Biomedical Technology (Guangzhou) Co., Ltd., priority 2021, published 2024).

Structures can show the parent of a compound that is named as a salt. Where two headings read alike, the source gives them in different places.

Experiment [1] addresses T1, N-terminal His-tagged TYK2 pseudokinase domain (Homo sapiens, UniProt P29597).
T1 construct: the N-terminal His-tagged TYK2 pseudokinase domain; His (N); purchased Pharmaron
Description: TYK2 JH2 domain SPA binding assay. The conditions noted are these: displacement of H3 probe (20 nM), 30 min room temperature; class symbols. The protocol:
TYK2 JH2 Domain Binding Assay
After incubating at room temperature for 30 min, the inhibition was calculated by the displacement of [3H] 3 binding as determined by scintillation counting. Dose-response curves were generated to determine the concentration required to inhibit H3 probe binding by […] (IC50).

Experiment [2] deals with IL-23 induced STAT3 in HEK-Blue™ IL-23 cells. Description: IL-23 induced STAT3 QUANTI-Blue reporter assay in HEK-Blue IL-23 cells. The conditions noted are these: IL-23 0.1 ng/mL, SEAP levels, class symbols, read-out: IL23 reporter assay (IC50 nM). Format: cell-based. The protocol: Biological Example 2. IL-23 Induced STAT3 QUANTI-Blue in HEK-Blue™ IL-23 Cells
HEK-Blue™ IL-23 cells were prepared at 2×10^5 cells/ml for adding 5000 cell/well and incubate plates containing compounds+cells for 1 hour at 37° C. Prepare IL-23 (treatment at final conc. 0.1 ng/mL) during incubation and add 2 ul per well of prepared cytokine in media to appropriate wells. The plate is incubated for overnight at 37° C. The next day, QUANTI-Blue solution is prepared. 18 ul of QUANTI-Blue solution per well is added into a new 384-well clear flat bottom plate, then add 2 ul of induced and treated HEK-Blue cell supernatant from overnight plate. Incubate the plate at 37° C. for 2 hours and determine SEAP levels.
Background: Reporter assays use an easily measured gene product as a stand-in for the process of interest.

Where [3] appears, read: HEK-Blue IL-23, HEK-Blue IL-23 cells.

T1 sequence (P29597 589-875 limits assumed): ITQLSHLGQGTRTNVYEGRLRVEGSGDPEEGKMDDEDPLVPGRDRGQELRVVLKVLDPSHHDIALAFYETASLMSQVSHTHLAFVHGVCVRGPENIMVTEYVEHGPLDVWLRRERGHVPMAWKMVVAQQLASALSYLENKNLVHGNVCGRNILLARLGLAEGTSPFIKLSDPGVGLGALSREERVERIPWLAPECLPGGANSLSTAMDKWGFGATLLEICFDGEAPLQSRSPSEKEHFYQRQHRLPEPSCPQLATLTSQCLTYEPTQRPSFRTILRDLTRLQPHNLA

By IC50 is commonly meant the concentration that inhibits the measured activity by half. For the molecule `[2H]C([2H])([2H])Nc1cc(Nc2cccn(C3CC4(CCOC4)C3)c2=O)nn2c(C(=O)N[C@@H]3C[C@H]4CCO[C@H]43)cnc12` (single isomer, unassigned) [Compound 96b], the IC50 in experiment [1] and in experiment [2] (HEK-Blue IL-23 cells) was 10 to 100 nM each time.

Consider `CNc1cc(Nc2cccn(-c3ccccn3)c2=O)nc2c(C(=O)NC3CCc4conc43)cnn12` (racemic) [Compound 37], for which the IC50 is 10 to 100 nM in experiment [1] and less than 10 nM in experiment [2] (setting [3]).

For the molecule `[2H]C([2H])([2H])Nc1cc(Nc2cccn([C@H]3C[C@@H](OC([2H])([2H])[2H])C3)c2=O)nn2c(C(=O)N[C@@H]3C[C@H]4CCO[C@H]43)cnc12` [Compound 87], the IC50 in experiment [1] and in experiment [2] (setting [3]) was 10 to 100 nM each time.

Regarding `CNc1cc(Nc2cccc(C)n2)nc2c(C(=O)NC3CCn4ccnc43)cnn12` (racemic) [Compound 32], the figures for the IC50 in experiment [1] and in experiment [2] (setting [3]) were 10 to 100 nM and less than 10 nM, respectively.

`CNc1cc(Nc2cccn(-c3cc(C)n(C)n3)c2=O)nn2c(C(=O)N[C@@H]3C[C@H]4CCO[C@H]43)cnc12` [Compound 55]: the IC50 in experiment [1] and in experiment [2] (setting [3]) was 10 to 100 nM throughout.

For the molecule `CNc1cc(Nc2cccn([C@H]3C[C@H](F)C3)c2=O)nn2c(C(=O)N[C@@H]3C[C@H]4CCO[C@H]43)cnc12` [Compound 90], the half-maximal inhibitory concentration (IC50) in experiment [1] and in experiment [2] (setting [3]) was 10 to 100 nM throughout.

In the case of `CNc1cc(Nc2cccc3c2OCCC3)nn2c(C(=O)NCc3nccn3C)cnc12` [Compound 21], the IC50 was 10 to 100 nM in experiment [1] and less than 10 nM in experiment [2] (setting [3]).

Take `[2H]c1onc2c1CCC2NC(=O)c1cnc2c(NC)cc(Nc3cccn(-c4ccccn4)c3=O)nn12` (stereo not drawn) [Compound 8, N-(5,6-dihydro-4H-cyclopenta[c]isoxazol-6-yl-3-d)-8-(methylamino)-6-((2-oxo-2H-[1,2′-bipyridin]-3-yl)amino)imidazo[1,2-b]pyridazine-3-carboxamide]: the IC50 in experiment [1] and in experiment [2] (setting [3]) was less than 10 nM throughout.

Consider `CNc1cc(Nc2cccc3c2OCCC3)nc2c(C(=O)N[C@@H]3C[C@@H]4CCO[C@@H]43)cnn12` (racemic) [Compound 26], for which the IC50 in experiment [1] and in experiment [2] (setting [3]) was 10 to 100 nM each time.

As to `CNc1cc(Nc2cccn(-c3ncccc3F)c2=O)nn2c(C(=O)N[C@@H]3C[C@H]4CCO[C@H]43)cnc12` [Compound 1, N-((1R,5S,7R)-2-oxabicyclo[3.2.0]heptan-7-yl)-6-((3′-fluoro-2-oxo-2H-[1,2′-bipyridin]-3-yl)amino)-8-(methylamino)imidazo[1,2-b]pyridazine-3-carboxamide], the concentration for half-maximal inhibition (IC50) in experiment [1] was 10 to 100 nM; in experiment [2] (setting [3]), less than 10 nM.

`CNc1cc(Nc2cccn(-c3ccccc3F)c2=O)nn2c(C(=O)N[C@@H]3C[C@H]4CCO[C@H]43)cnc12` [Compound 44]: the IC50 in experiment [1] is 10 to 100 nM; in experiment [2] (setting [3]) it was less than 10 nM.

With `CNc1cc(Nc2cccn([C@H]3CCCOC3)c2=O)nn2c(C(=O)N[C@@H]3C[C@H]4CCO[C@H]43)cnc12` [Compound 65], the concentration for half-maximal inhibition (IC50) is 10 to 100 nM in experiment [1] and less than 10 nM in experiment [2] (setting [3]).

Regarding `CNc1cc(Nc2cccn(C3CC(C)(OC)C3)c2=O)nn2c(C(=O)N[C@@H]3C[C@H]4CCO[C@H]43)cnc12` (single isomer, unassigned) [Compound 92a], the IC50 in experiment [1] and in experiment [2] (setting [3]) was 10 to 100 nM throughout.

Regarding `[2H]C([2H])([2H])Nc1cc(Nc2cccn(C3CCCC4(COC4)C3)c2=O)nn2c(C(=O)N[C@@H]3C[C@@H]3F)cnc12` (single isomer, unassigned) [Compound 75b], the concentration for half-maximal inhibition (IC50) in experiment [1] and in experiment [2] (HEK-Blue IL-23 cells) was 10 to 100 nM each time.

Consider `CNc1cc(Nc2cccn(-c3ccccn3)c2=O)nc2c(C(=O)NC3CCn4ncnc43)cnn12` (stereo not drawn) [Compound 17, N-(6,7-dihydro-5H-pyrrolo[1,2-b][1,2,4]triazol-7-yl)-7-(methylamino)-5-((2-oxo-2H-[1,2′-bipyridin]-3-yl)amino)pyrazolo[1,5-a]pyrimidine-3-carboxamide], for which the IC50 in experiment [1] and in experiment [2] (setting [3]) was 10 to 100 nM throughout.

Turning to `[2H]C([2H])([2H])Nc1cc(Nc2cccc(N3CCCC3=O)n2)nn2c(C(=O)NC3C[C@H]4CCOC34)cnc12` (mixture of isomers) [Compound 31], the half-maximal inhibitory concentration (IC50) in experiment [1] and in experiment [2] (setting [3]) was less than 10 nM each time.

On to `[2H]C([2H])([2H])Nc1cc(Nc2cccn(C3CC4(CCOC4)C3)c2=O)nc2c(C(=O)N[C@@H]3C[C@H]4CCO[C@H]43)cnn12` (single isomer, unassigned) [Compound 97b], for which the IC50 in experiment [1] and in experiment [2] (HEK-Blue IL-23 cells) was 10 to 100 nM each time.

For `[2H]C([2H])([2H])Nc1cc(Nc2cccn([C@H]3C[C@H](OC([2H])([2H])[2H])C3)c2=O)nc2c(C(=O)N[C@@H]3C[C@@H]3F)cnn12` [Compound 100], the IC50 in experiment [1] and in experiment [2] (setting [3]) was 10 to 100 nM throughout.

As for `CNc1cc(Nc2cccc3c2OCCC3)nn2c(C(=O)NC3CCn4ccnc43)cnc12` (stereo not drawn) [Compound 6, 6-(chroman-8-ylamino)-N-(6,7-dihydro-5H-pyrrolo[1,2-a]imidazol-7-yl)-8-(methylamino)imidazo[1,2-b]pyridazine-3-carboxamide], the IC50 in experiment [1] and in experiment [2] (setting [3]) was less than 10 nM throughout.

Consider `CNc1cc(Nc2cccn(-c3ccccc3F)c2=O)nn2c(C(=O)N[C@H]3C[C@@H]4CCO[C@@H]43)cnc12` [Compound 45], for which the IC50 in experiment [1] is 100 to 1000 nM; in experiment [2] (setting [3]), no less than 1000 nM.

For the molecule `CNc1cc(Nc2cccn([C@@H]3C[C@H]4CCO[C@H]43)c2=O)nn2c(C(=O)NC3CCC4CCOC43)cnc12` (single isomer, unassigned) [Compound 95a], the half-maximal inhibitory concentration (IC50) in experiment [1] is 10 to 100 nM; in experiment [2] (HEK-Blue IL-23 cells) it was less than 10 nM.

As for `CNc1cc(Nc2cccn(C3C[C@H]4CC[C@@H](C3)O4)c2=O)nn2c(C(=O)N[C@@H]3C[C@@H]3F)cnc12` (single isomer, unassigned) [Compound 79a], the IC50 in experiment [1] and in experiment [2] (setting [3]) was 10 to 100 nM throughout.

Consider `[2H]C([2H])([2H])O[C@H]1CC[C@@H](n2cccc(Nc3cc(NC)c4ncc(C(=O)N[C@@H]5C[C@@H]5F)n4n3)c2=O)CC1` [Compound 15, N-((1R,2S)-2-fluorocyclopropyl)-6-((1-((1s,4s)-4-(methoxy-d3)cyclohexyl)-2-oxo-1,2-dihydropyridin-3-yl)amino)-8-(methylamino)imidazo[1,2-b]pyridazine-3-carboxamide hydrochloride], for which the IC50 in experiment [1] and in experiment [2] (setting [3]) was 10 to 100 nM each time.

`CNc1cc(Nc2cccn(C3C[C@H]4CC[C@@H](C3)O4)c2=O)nc2c(C(=O)N[C@@H]3C[C@H]4CCO[C@H]43)cnn12` (stereo partly drawn) [Compound 76]: the IC50 in experiment [1] and in experiment [2] (setting [3]) was 10 to 100 nM each time.

As for `CNc1cc(Nc2cccn(-c3ccn(C)n3)c2=O)nc2c(C(=O)N[C@@H]3C[C@H]4CCO[C@H]43)cnn12` (racemic) [Compound 51], the IC50 in experiment [1] was in the range of 100 to 1000 nM; in experiment [2] (setting [3]), 10 to 100 nM.

With `[2H]C([2H])([2H])Nc1cc(Nc2cccn(C3CC4(CCOC4)C3)c2=O)nn2c(C(=O)N[C@@H]3C[C@H]4CCO[C@H]43)cnc12` (single isomer, unassigned) [Compound 96a], the concentration for half-maximal inhibition (IC50) in experiment [1] and in experiment [2] (setting [3]) was 10 to 100 nM each time.

Take `[2H]C([2H])([2H])Nc1cc(Nc2cccn([C@@H]3C[C@H]4CCO[C@H]43)c2=O)nn2c(C(=O)N[C@@H]3C[C@H]4CCO[C@H]43)cnc12` [Compound 14, 6-((1-((1R,5S,7R)-2-oxabicyclo[3.2.0]heptan-7-yl)-2-oxo-1,2-dihydropyridin-3-yl)amino)-N-((1R,5S,7R)-2-oxabicyclo[3.2.0]heptan-7-yl)-8-((methyl-d3)amino)imidazo[1,2-b]pyridazine-3-carboxamide]: the IC50 in experiment [1] and in experiment [2] (setting [3]) was less than 10 nM throughout.

Consider `CNc1cc(Nc2cccn(-c3ccn(C)n3)c2=O)nn2c(C(=O)NC(C)c3ncco3)cnc12` (single isomer, unassigned) [Compound 49b], for which the IC50 in experiment [1] was greater than 1000 nM; in experiment [2] (HEK-Blue IL-23 cells) it was no less than 1000 nM.

Consider `CNc1cc(Nc2cccn([C@H]3C[C@@H](OC)C3)c2=O)nn2c(C(=O)N[C@@H]3C[C@H]4CCO[C@H]43)cnc12` [Compound 85], for which the 50% inhibitory concentration (IC50) in experiment [1] and in experiment [2] (setting [3]) was 10 to 100 nM each time.

With `[2H]C([2H])([2H])Nc1cc(Nc2cccn(C3CC4(CCOC4)C3)c2=O)nc2c(C(=O)N[C@@H]3C[C@@H]3F)cnn12` (single isomer, unassigned) [Compound 103a], the IC50 in experiment [1] and in experiment [2] (setting [3]) was 10 to 100 nM in each case.

`[2H]C([2H])([2H])OC1(C)CC(n2cccc(Nc3cc(NC)c4ncc(C(=O)N[C@@H]5C[C@H]6CCO[C@H]65)n4n3)c2=O)C1` (single isomer, unassigned) [Compound 93a]: the IC50 in experiment [1] and in experiment [2] (setting [3]) was 10 to 100 nM throughout.

For `[2H]C([2H])([2H])Nc1cc(Nc2cccn(C3CC4(CCCO4)C3)c2=O)nn2c(C(=O)N[C@@H]3C[C@H]4CCO[C@H]43)cnc12` (single isomer, unassigned) [Compound 98b], the IC50 in experiment [1] and in experiment [2] (HEK-Blue IL-23 cells) was 10 to 100 nM in each case.

Turning to `[2H]C([2H])([2H])Nc1cc(Nc2cccn([C@H]3CC[C@H](OC([2H])([2H])[2H])CC3)c2=O)nn2c(C(=O)N[C@@H]3C[C@@H]3F)cnc12` [Compound 69], the IC50 in experiment [1] is 10 to 100 nM; in experiment [2] (setting [3]), less than 10 nM.
